Source: patent US9902766B2, “Antibodies to endoplasmin and their use” (University of Pittsburgh—Of The Commonwealth System of …, priority 2010, dated 2018)
Read-outs that look alike come from different tables or passages of the source.

System: MIAPaCa-2 cancer initiating cells (ALDHbright cells)
Test: cancer initiating cell in vitro proliferation, ALDEFLUOR flow cytometry
Type: cell-based
Details: Homo sapiens, read-out: growth inhibition of ALDHbright cells
Protocol: FIG. 19. […] Human pancreatic adenocarcinoma MIAPaCa-2 cells were incubated with mAb W9 (25 μg/ml), for 48 hrs at 37° C. Cells were then harvested and stained with ALDEFLUOR® (TEST). Cells stained with ALDEFLUOR®+DAEB were used as a reference (CONTROL). Human Ig (HIg) were used as a control.
FIG. 26. […] Human pancreatic adenocarcinoma MIAPaCa-2 cells were incubated with mAb W9 (25 μg/ml), cyclopamine (20 μM), and 5-FU (10 μM) for 48 hrs at 37° C. Cells were then stained with ALDEFLUOR with or without the DEAB inhibitor to identify ALDH^bright cells. The anti-HLA class I mAb TP25.99 was used as a control.
FIGS. 28A and 28B. […] Human pancreatic adenocarcinoma MIAPaCa-2 cells (4×10^5/ml) were irradiated at the dose of 20Gy (panel A.) and incubated with mAb W9 (10 μg/ml) and cyclopamine (20 μM) for 72 hrs at 37° C. Cells were then stained with ALDEFLUOR with or without the DEAB inhibitor to identify ALDH^bright cells. Non-irradiated cell were used as a control (panel B.).

## O=c1[nH]cc(F)c(=O)[nH]1 [5-FU, 5-fluorouracil, reference compound]
MIA PaCa-2, MIAPaCa-2, mAb W9 25 μg/ml, cyclopamine 20 μM, 5-FU 10 μM, 48 hrs
  inhibition at 10 µM: 20%

## CC1=C2C[C@H]3[C@@H](CC=C4C[C@@H](O)CC[C@@]43C)[C@@H]2CC[C@]12O[C@@H]1C[C@H](C)CN[C@H]1[C@H]2C [cyclopamine, reference compound]
MIA PaCa-2, 48 h
  inhibition at 20 µM: 50%
MIA PaCa-2, 72 h
  inhibition at 20 µM: ~50%
